Experimental findings from US20250388553A1 (Incyte Corporation, priority 2018, published 2025) are described below.

Counter-ions that a name gives are not always drawn. Some results are limits rather than exact numbers.

The target of assay [1] is PI3Kδ (p1106/p85a) Recombinant Human Protein (Homo sapiens (Human), UniProt O00329). Briefly: PI3Kδ scintillation proximity assay. The following applies: scintillation proximity assay, recombinant human PI3Kδ. The format is biochemical. For orientation: Scintillation proximity formats need no separation of bound from free tracer.
Chain of PI3Kδ (p1106/p85a) Recombinant Human Protein (O00329 whole entry): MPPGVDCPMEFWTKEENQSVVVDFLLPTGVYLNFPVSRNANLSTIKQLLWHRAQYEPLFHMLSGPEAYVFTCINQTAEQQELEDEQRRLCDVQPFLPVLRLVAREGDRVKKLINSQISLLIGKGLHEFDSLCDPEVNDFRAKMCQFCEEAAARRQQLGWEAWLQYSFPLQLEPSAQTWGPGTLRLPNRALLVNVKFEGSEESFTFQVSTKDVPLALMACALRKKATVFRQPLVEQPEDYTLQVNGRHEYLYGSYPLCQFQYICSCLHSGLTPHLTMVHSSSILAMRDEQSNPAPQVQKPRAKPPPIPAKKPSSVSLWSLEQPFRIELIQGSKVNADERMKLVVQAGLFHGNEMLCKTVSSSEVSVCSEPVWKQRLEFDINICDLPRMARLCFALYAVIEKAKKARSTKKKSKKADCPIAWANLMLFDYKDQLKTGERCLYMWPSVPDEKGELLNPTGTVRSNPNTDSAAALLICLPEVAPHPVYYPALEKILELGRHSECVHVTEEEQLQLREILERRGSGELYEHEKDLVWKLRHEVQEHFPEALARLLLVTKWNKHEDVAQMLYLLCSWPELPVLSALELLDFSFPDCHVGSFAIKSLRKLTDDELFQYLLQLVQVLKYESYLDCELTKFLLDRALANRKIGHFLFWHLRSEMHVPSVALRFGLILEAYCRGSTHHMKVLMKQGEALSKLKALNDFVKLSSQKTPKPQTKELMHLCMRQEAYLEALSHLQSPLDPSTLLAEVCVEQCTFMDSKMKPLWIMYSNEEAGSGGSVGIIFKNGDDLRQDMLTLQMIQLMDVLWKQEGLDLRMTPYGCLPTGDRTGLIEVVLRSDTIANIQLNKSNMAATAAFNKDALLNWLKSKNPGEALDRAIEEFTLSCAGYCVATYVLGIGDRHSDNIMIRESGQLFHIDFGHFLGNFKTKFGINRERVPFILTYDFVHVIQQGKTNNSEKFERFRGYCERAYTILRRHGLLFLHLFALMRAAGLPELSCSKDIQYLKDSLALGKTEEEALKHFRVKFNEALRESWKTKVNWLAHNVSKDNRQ
Chain of PI3Kδ (p1106/p85a) Recombinant Human Protein (P27986 whole entry partner): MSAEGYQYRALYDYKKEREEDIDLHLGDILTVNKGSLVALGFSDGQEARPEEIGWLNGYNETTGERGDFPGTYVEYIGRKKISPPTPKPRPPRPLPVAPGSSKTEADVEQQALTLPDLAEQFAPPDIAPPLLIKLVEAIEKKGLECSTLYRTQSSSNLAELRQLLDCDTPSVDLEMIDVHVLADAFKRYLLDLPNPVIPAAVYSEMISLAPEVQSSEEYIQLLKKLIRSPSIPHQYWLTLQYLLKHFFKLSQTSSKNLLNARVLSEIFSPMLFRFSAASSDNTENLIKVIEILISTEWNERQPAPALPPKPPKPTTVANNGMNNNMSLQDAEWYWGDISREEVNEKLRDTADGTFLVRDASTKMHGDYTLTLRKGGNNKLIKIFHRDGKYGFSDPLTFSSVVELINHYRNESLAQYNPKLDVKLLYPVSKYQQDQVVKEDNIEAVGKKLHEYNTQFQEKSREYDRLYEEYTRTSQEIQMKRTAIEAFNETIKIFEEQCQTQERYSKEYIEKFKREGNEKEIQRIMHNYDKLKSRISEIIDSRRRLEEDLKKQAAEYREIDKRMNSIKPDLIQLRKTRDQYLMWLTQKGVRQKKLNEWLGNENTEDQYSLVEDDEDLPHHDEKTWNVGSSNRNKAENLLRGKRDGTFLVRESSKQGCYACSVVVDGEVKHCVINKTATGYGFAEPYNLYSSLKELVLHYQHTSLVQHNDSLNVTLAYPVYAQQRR
Assay [2] addresses PI3Kγ (p110γ) Recombinant Human Protein (Homo sapiens (Human), UniProt P48736). Briefly: PI3K-γ scintillation proximity assay. The following applies: scintillation proximity assay, recombinant human p110γ. It is filed as biochemical.

Chain of PI3Kγ (p110γ) Recombinant Human Protein (P48736 whole entry): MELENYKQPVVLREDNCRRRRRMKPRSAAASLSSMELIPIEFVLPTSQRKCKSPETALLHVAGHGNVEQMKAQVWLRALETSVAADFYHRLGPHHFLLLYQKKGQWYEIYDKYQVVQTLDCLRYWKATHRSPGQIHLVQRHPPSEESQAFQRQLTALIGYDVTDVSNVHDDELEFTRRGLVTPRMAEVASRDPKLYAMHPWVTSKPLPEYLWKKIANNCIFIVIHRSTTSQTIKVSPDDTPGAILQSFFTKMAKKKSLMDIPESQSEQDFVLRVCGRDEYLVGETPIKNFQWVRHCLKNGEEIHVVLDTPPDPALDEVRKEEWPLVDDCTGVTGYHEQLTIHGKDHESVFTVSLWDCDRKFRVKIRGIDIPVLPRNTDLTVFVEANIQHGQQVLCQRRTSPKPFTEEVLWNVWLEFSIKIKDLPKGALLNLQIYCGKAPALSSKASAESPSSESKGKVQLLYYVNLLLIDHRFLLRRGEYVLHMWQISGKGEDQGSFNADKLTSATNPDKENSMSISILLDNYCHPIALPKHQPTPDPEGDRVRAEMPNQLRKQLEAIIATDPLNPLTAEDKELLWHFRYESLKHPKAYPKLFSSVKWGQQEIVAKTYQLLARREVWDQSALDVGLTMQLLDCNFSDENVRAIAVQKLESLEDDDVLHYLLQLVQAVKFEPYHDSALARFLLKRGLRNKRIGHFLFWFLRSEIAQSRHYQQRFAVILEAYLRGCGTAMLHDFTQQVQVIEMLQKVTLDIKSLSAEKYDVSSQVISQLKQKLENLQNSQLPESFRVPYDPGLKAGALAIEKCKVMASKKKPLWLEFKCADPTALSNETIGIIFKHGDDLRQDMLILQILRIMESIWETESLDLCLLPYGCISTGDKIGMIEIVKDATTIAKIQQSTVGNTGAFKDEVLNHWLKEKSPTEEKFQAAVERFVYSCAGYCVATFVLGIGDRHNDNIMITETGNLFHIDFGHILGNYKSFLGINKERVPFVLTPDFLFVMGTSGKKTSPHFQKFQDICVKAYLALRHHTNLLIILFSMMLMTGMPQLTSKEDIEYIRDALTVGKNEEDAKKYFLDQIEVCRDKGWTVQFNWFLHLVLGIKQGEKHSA

Broadly, the IC50 is the concentration that inhibits the measured activity by half. As for `Cc1ccc(C(O)(C(N)=O)C(F)(F)F)cc1-c1cnc(N)c(C#CC2(C)CCOCC2)n1` (centres unmarked) [Example 64, 2-(3-(5-amino-6-((4-methyltetrahydro-2H-pyran-4-yl)ethynyl)pyrazin-2-yl)-4-methylphenyl)-3,3,3-trifluoro-2-hydroxypropanamide], the IC50 in assay [1] (Table A2) and in assay [2] (Table A2) was < 100 nM in each case.
With `Cc1ccc(C(O)(C(N)=O)C(F)(F)F)cc1-c1cnc(N)c(C#Cc2cnn(C)c2)n1` (centres unmarked) [Example 54, 2-(3-(5-amino-6-((1-methyl-1H-pyrazol-4-yl)ethynyl)pyrazin-2-yl)-4-methylphenyl)-3,3,3-trifluoro-2-hydroxypropanamide], the IC50 in assay [1] (Table A2) and in assay [2] (Table A2) was < 100 nM each time.
`Cc1ccc(C(O)(C(N)=O)C(F)(F)F)cc1-c1cnc(N)c(C#Cc2cncnc2)n1` (centres unmarked) [Example 56, 2-(3-(5-amino-6-(pyrimidin-5-ylethynyl)pyrazin-2-yl)-4-methylphenyl)-3,3,3-trifluoro-2-hydroxypropanamide]: the concentration for half-maximal inhibition (IC50) in assay [1] (Table A2) and in assay [2] (Table A2) was < 100 nM each time.
With `Cc1ccc(C(O)(C(N)=O)C(F)(F)F)cc1-c1cnc(N)c(C#Cc2cccc(F)c2)n1` (centres unmarked) [Example 61, 2-(3-(5-amino-6-((3-fluorophenyl)ethynyl)pyrazin-2-yl)-4-methylphenyl)-3,3,3-trifluoro-2-hydroxypropanamide], the IC50 in assay [1] (Table A2) and in assay [2] (Table A2) was < 100 nM each time.
As to `Cc1ccc(C(O)(C(N)=O)C(F)(F)F)cc1-c1cnc(N)c(C(=O)NCC(F)(F)F)n1` (centres unmarked) [Example 38, 3-Amino-6-(5-(3-amino-1,1,1-trifluoro-2-hydroxy-3-oxopropan-2-yl)-2-methylphenyl)-N-(2,2,2-trifluoroethyl)pyrazine-2-carboxamide trifluoroacetate], the IC50 in assay [1] (Table A1) and in assay [2] (Table A1) was < 100 nM throughout.
`Cc1ccc(C(O)(C(N)=O)C(F)(F)F)cc1-c1cnc(N)c(C#CCC(C)O)n1` (centres unmarked) [Example 51, 2-(3-(5-amino-6-(4-hydroxypent-1-ynyl)pyrazin-2-yl)-4-methylphenyl)-3,3,3-trifluoro-2-hydroxypropanamide]: the IC50 in assay [1] (Table A2) and in assay [2] (Table A2) was < 100 nM throughout.
For the compound `Cc1ccc(C(O)(C(N)=O)C(F)(F)F)cc1-c1cnc(N)c(C(=O)NC23CC(C#N)(C2)C3)n1` (centres unmarked) [Example 23, 3-amino-6-(5-(3-amino-1,1,1-trifluoro-2-hydroxy-3-oxopropan-2-yl)-2-methylphenyl)-N-(3-cyanobicyclo[1.1.1]pentan-1-yl)pyrazine-2-carboxamide trifluoroacetate], the IC50 in assay [1] (Table A1) and in assay [2] (Table A1) was < 100 nM throughout.
As for `Cc1ccc(C(O)(C(N)=O)C(F)(F)F)cc1-c1cnc(N)c(C(=O)NC2CC3CCC2O3)n1` (single isomer, unassigned) [Example 30, 3-amino-6-(5-(3-amino-1,1,1-trifluoro-2-hydroxy-3-oxopropan-2-yl)-2-methylphenyl)-N-(7-oxabicyclo[2.2.1]heptan-2-yl)pyrazine-2-carboxamide], the IC50 in assay [1] (Table A1) and in assay [2] (Table A1) was < 100 nM throughout.
Consider `Cc1ccc(C(O)(C(N)=O)C(F)(F)F)cc1-c1cnc(N)c(C(=O)N2CCC2(C)C)n1` (centres unmarked) [Example 27, 2-(3-(5-amino-6-(2,2-dimethylazetidine-1-carbonyl)pyrazin-2-yl)-4-methylphenyl)-3,3,3-trifluoro-2-hydroxypropanamide], for which the IC50 in assay [1] (Table A1) and in assay [2] (Table A1) was < 100 nM throughout.
Consider `Cc1ccc(C(O)(C(N)=O)C(F)(F)F)cc1-c1cnc(N)c(C(=O)N[C@@H](C)CC#N)n1` (stereo partly drawn) [Example 8, 3-amino-6-(5-(3-amino-1,1,1-trifluoro-2-hydroxy-3-oxopropan-2-yl)-2-methylphenyl)-N-((S)-1-cyanopropan-2-yl)pyrazine-2-carboxamide trifluoroacetate], for which the IC50 in assay [1] (Table A1) and in assay [2] (Table A1) was < 100 nM throughout.
On to `C/C=C\c1nc(-c2cc(C(O)(C(N)=O)C(F)(F)F)ccc2C)cnc1N` (centres unmarked) [Example 44, (Z)-2-(3-(5-amino-6-(prop-1-en-1-yl)pyrazin-2-yl)-4-methylphenyl)-3,3,3-trifluoro-2-hydroxypropanamide], for which the IC50 is 100 to 500 nM in assay [1] (Table A2) and < 100 nM in assay [2] (Table A2).
In the case of `Cc1ccc(C(O)(C(N)=O)C(F)(F)F)cc1-c1cnc(N)c(C#CC2(O)CCN(C)C2=O)n1` (centres unmarked) [Example 65, 2-(3-(5-amino-6-((3-hydroxy-1-methyl-2-oxopyrrolidin-3-yl)ethynyl)pyrazin-2-yl)-4-methylphenyl)-3,3,3-trifluoro-2-], the IC50 in assay [1] (Table A2) and in assay [2] (Table A2) was < 100 nM in each case.
`Cc1ccc(C(O)(C(N)=O)C(F)(F)F)cc1-c1cnc(N)c(-n2cccn2)n1` (centres unmarked) [Example 93, 2-(3-(5-Amino-6-(1H-pyrazol-1-yl)pyrazin-2-yl)-4-methylphenyl)-3,3,3-trifluoro-2-hydroxypropanamide]: the IC50 in assay [1] (Table A3) and in assay [2] (Table A3) was < 100 nM in each case.
`CC[C@@H](CC#N)NC(=O)c1nc(-c2cc(C(O)(C(N)=O)C(F)(F)F)ccc2C)cnc1N` (stereo partly drawn) [Example 20, 3-amino-6-(5-(3-amino-1,1,1-trifluoro-2-hydroxy-3-oxopropan-2-yl)-2-methylphenyl)-N-((S)-1-cyanobutan-2-yl)pyrazine-2-carboxamide trifluoroacetate]: the IC50 in assay [1] (Table A1) and in assay [2] (Table A1) was < 100 nM throughout.
`Cc1ccc(C(O)(C(N)=O)C(F)(F)F)cc1-c1cnc(N)c(N2CCN(c3cncs3)CC2)n1` (centres unmarked) [Example 120, 2-(3-(5-amino-6-(4-(thiazol-5-yl)piperazin-1-yl)pyrazin-2-yl)-4-methylphenyl)-3,3,3-trifluoro-2-hydroxypropanamide trifluoroacetate]: the IC50 in assay [1] (Table A4) and in assay [2] (Table A4) was < 100 nM each time.
For `Cc1ccc(C(O)(C(N)=O)C(F)(F)F)cc1-c1cnc(N)c(C(=O)NC2CCC(F)(F)CC2)n1` (centres unmarked) [Example 6, 3-amino-6-(5-(3-amino-1,1,1-trifluoro-2-hydroxy-3-oxopropan-2-yl)-2-methylphenyl)-N-(4,4-difluorocyclohexyl)pyrazine-2-carboxamide trifluoroacetate], the IC50 in assay [1] (Table A1) and in assay [2] (Table A1) was < 100 nM throughout.
Turning to `Cc1ccc(C(O)(C(N)=O)C(F)(F)F)cc1-c1cnc(N)c(C(=O)N[C@@H]2CCCOC2)n1` (stereo partly drawn) [Example 9, 3-amino-6-(5-(3-amino-1,1,1-trifluoro-2-hydroxy-3-oxopropan-2-yl)-2-methylphenyl)-N-((R)-tetrahydro-2H-pyran-3-yl)pyrazine-2-carboxamide trifluoroacetate], the IC50 in assay [1] (Table A1) and in assay [2] (Table A1) was < 100 nM each time.
Consider `Cc1ccc(C(O)(C(N)=O)C(F)(F)F)cc1-c1cnc(N)c(C#CC(C)(C)O)n1` (centres unmarked) [Example 50, 2-(3-(5-amino-6-(3-hydroxy-3-methylbut-1-ynyl)pyrazin-2-yl)-4-methylphenyl)-3,3,3-trifluoro-2-hydroxypropanamide], for which the IC50 in assay [1] (Table A2) and in assay [2] (Table A2) was < 100 nM each time.
With `Cc1ccc(C(O)(C(N)=O)C(F)(F)F)cc1-c1cnc(N)c(C#Cc2cnccn2)n1` (centres unmarked) [Example 57, 2-(3-(5-amino-6-(pyrazin-2-ylethynyl)pyrazin-2-yl)-4-methylphenyl)-3,3,3-trifluoro-2-hydroxypropanamide], the IC50 in assay [1] (Table A2) and in assay [2] (Table A2) was < 100 nM in each case.
